Here are results for nine compounds from patent US10626140B2, “Prodrugs of 17β-HSD1-inhibitors” (FORENDO PHARMA LTD, priority 2014, dated 2020).

The nature of series [1]: Metabolic stability assay. To be noted: human liver homogenate or microsomes. It counts as in vitro ADME. The method, then: The in vitro metabolic stability of the parent compounds was determined for exemplified compounds using human liver microsome and homogenate incubations. The incubation time points used with or without appropriate cofactors were 0 min and 60 min. Samples were collected at both time points and substrates were detected using LC/PDA/TOF-MS. In vitro metabolic stability (% remaining after 60 min in human liver homogenate or microsomes) of the compounds were calculated and the results are summarized in Table 4.

Series [2] can be described thus: Aqueous solubility test. It counts as physicochemical. To be noted: for solubility: thermodynamic from solid. On the procedure:
The pH of the mixtures was held constant during the study. Excess amounts or a known amount of each component are added to 1 or 0.5 ml of buffer solution and the mixtures were stirred at rt for 48 hours or less, filtered (0.45 um Millipore) and analyzed by HPLC.

Series [3] has as its target T1, recombinant human 17β-HSD2 (Homo sapiens, UniProt P37059).
T1 construct: made in house; host or cells: Sd9 (Sf9) insect cells, baculovirus (Bac to Bac Expression System)
T1 sequence (P37059 1-387): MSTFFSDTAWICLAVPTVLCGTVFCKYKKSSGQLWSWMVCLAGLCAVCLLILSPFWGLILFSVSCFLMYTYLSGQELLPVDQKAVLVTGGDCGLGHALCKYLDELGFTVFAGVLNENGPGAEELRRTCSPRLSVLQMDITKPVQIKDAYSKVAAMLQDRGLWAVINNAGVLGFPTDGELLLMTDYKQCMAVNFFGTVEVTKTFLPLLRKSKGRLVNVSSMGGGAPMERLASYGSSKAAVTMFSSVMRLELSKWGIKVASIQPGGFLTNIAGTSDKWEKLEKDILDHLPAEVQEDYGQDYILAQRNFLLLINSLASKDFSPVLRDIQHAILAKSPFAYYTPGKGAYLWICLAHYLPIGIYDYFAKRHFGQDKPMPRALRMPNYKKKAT
The series can be described thus: Inhibition of recombinant human 17β-HSD2. Conditions: inhibitor 1 μM; 50 nM estradiol, 1 mM NADH, 30 min at RT. It counts as biochemical. The method, then:
17β-HSD2 Production and Isolation:
Similarly to 17β-HSD1 the Recombinant baculovirus was generated by the “Bac to Bac Expression System” (Invitrogen). Recombinant bacmid was transfected to Sd9 insect cells using “Cellfectin Reagent” (Invitrogen). 60 h later cells were harvested and supernatant were fractionated by the following protocol: • cells were dissolved into 40 ml of A-buffer (40 mM TRIS, pH8.0, 20% glycerol, 20 μM NAD, 0.4 mM PMSF, 150 mM NaCl, 0.5% dodecyl-β-maltoside+protease inhibitor cocktail) • cells were sonicated • lysate was incubated on ice for 15 min • lysate was centrifuged 5000 rpm 15 min, +4° C. • centrifugation of the supernatant 180 000 g 30 min, +4° C. • pellet was dissolved into 8 ml of A-buffer • not resuspended material was removed by centrifugation 5000 rpm 15 min, +4° C. • the clear supernatant was divided into 100 μl aliquots and were stored frozen until determination of enzymatic activity.
The amount of 17β-HSD2 was analysed by immunoblotting and total protein concentration of each extract batch was determined.
Assay—Inhibition of Recombinant Human 17β-HSD2:
Protein homogenate (4 μg/ml) was incubated in 20 mM KH2PO4 pH 8.5 with 50 nM estradiol (including 800 000 cpm/ml of ^3H-estradiol) and 1 mM […] for 30 min at RT, in the presence of the potential inhibitor at concentrations 1 μM or 0.1 μM. Inhibitor stock solutions were prepared in DMSO. Final concentration of DMSO was adjusted to 1% in all samples. The enzyme reaction was stopped by addition of 10% trichloroacetic acid (final concentration). Samples were centrifuged in a microtiter plate at 4000 rpm for 10 min. Supernatants were applied to reverse phase HPLC on a Waters Symmetry C18 column, equipped with a Waters Sentry Guard column. […] Radioactivity was monitored in the eluate by a Packard Flow Scintillation Analyzer. Total radioactivity for estrone and estradiol were determined in each sample and percent conversion of estradiol to estrone was calculated according to the following formula:
(§1) [formula] Percent inhibition was calculated flowingly: % inhibition=100−% conversion

In series [4] the target is T2, recombinant human 17β-HSD1 (Homo sapiens, UniProt P14061).
T2 construct: made in house; host or cells: Sd9 (Sf9) insect cells, baculovirus (Bac to Bac Expression System)
T2 sequence (P14061 1-328): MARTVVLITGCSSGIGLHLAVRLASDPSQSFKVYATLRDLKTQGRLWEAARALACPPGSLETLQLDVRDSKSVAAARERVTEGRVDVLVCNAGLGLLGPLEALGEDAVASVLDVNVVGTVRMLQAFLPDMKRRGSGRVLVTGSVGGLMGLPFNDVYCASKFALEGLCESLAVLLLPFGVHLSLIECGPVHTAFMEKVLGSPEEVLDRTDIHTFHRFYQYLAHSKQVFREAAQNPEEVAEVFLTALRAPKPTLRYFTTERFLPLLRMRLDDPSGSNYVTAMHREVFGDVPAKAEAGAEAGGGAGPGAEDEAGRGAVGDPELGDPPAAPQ
Briefly: Inhibition of recombinant human 17β-HSD1. Conditions: inhibitor 1 μM; 30 nM estrone, 1 mM NADPH, 30 min at RT; read-out: 17β-HDS1 Inhibition % at 1 μM. It counts as biochemical. The method, then:
17β-HSD1 Production and Isolation:
Recombinant baculovirus was generated by the “Bac to Bac Expression System” (Invitrogen). Recombinant bacmid was transfected to Sd9 insect cells using “Cellfectin Reagent” (Invitrogen). 60 h later cells were harvested; the microsomal fraction was isolated as described by Puranen, T. J., Poutanen, M. H., Peltoketo, H. E., Vihko, P. T. and Vihko, R. K. (1994) Site-directed mutagenesis of the putative active site of human 17β-hydroxysteroid dehydrogenase type 1. Biochem. J. 304: 289-293. Aliquots were stored frozen until determination of enzymatic activity.
Assay—Inhibition of Recombinant Human 17β-HSD1:
Protein homogenate (0.1 μg/ml) was incubated in 20 mM KH2PO4 pH 7.4 with 30 nM estrone (including 800 000 cpm/ml of ^3H-estrone) and 1 mM NADPH for 30 min at RT, in the presence of the potential inhibitor at concentrations 1 μM or 0.1 μM. Inhibitor stock solutions were prepared in DMSO. Final concentration of DMSO was adjusted to 1% in all samples. The enzyme reaction was stopped by addition of 10% trichloroacetic acid (final concentration). Samples were centrifuged in a microtiter plate at 4000 rpm for 10 min. Supernatants were applied to reverse phase HPLC on a Waters Symmetry C18 column, equipped with a Waters Sentry Guard column. Isocratic HPLC runs were performed at RT at a flow rate of 1 ml/min in acetonitrile:water 48:52 as running solvent. Radioactivity was monitored in the eluate by a Packard Flow Scintillation Analyzer. Total radioactivity for estrone and estradiol were determined in each sample and percent conversion of estrone to estradiol was calculated according to the following formula:
as §1

“Also recorded” adds a separate entry of the source. Like-named read-outs stand apart in the source and are kept apart here.

In the case of `Cc1cnc(NC(=O)CC[C@@H]2CC(=O)[C@@]3(C)CCC4c5ccc(O)cc5CCC4C23)s1` (stereo partly drawn) [VII, reference compound], the “In vitro metabolic stability, % remaining after 60 min” value in series [1] is 13%.
For `CO/N=C1\C[C@@H](CCC(=O)Nc2ncc(C)s2)C2C3CCc4cc(OP(=O)(O)O)c(C(C)(C)C)cc4C3CC[C@]12C` (stereo partly drawn) [Compound 1], the “aqueous solubility (in words)” value in series [2] (Table 5) is “improved aqueous solubility”.
Consider `CO/N=C1\C[C@@H](CCC(=O)Nc2ncc(C)s2)C2C3CCc4cc(O)c(C(C)(C)C)cc4C3CC[C@]12C` (stereo partly drawn) [VIV-1, 3-{(13S,15R)-2-tert-Butyl-3-hydroxy-17-[(E)-methoxyimino]-13-methyl-7,8,9,11,12,13,14,15,16,17-decahydro-6H-cyclopenta[a]phenanthren-15-yl}-N-(5-methylthiazol-2-yl) propanamide], for which the inhibition at 1 µM in series [3] was found to be 14%; in series [4], 86%. This compound also had a solubility in series [2] (pH 7.4, aqueous buffer) below 0.52 µg/mL. Also, in series [1], the “In vitro metabolic stability, % remaining after 60 min” value was determined as 100%.
As to `CCO/N=C1\C[C@@H](CCC(=O)Nc2ncc(C)s2)C2C3CCc4cc(O)c(C(C)(C)C)cc4C3CC[C@]12C` (stereo partly drawn) [VIV-4, 3-{(13S,15R)-2-tert-Butyl-17-[(E)-ethoxyimino]-3-hydroxyl-13-methyl-7,8,9,11,12,13,14,15,16,17-decahydro-6H-cyclopenta[a]phenanthren-15-yl}-N-(5-methylthiazol-2-yl)propanamide], the inhibition at 1 µM was found to be 8% in series [3] and 89% in series [4].
Regarding `Cc1cnc(NC(=O)CC[C@@H]2C/C(=N\O)[C@@]3(C)CCC4c5cc(C(C)(C)C)c(O)cc5CCC4C23)s1` (stereo partly drawn) [VIV-3, 3-{(13S,15R)-2-tert-Butyl-3-hydroxy-17-[(E)-hydroxyimino]-13-methyl-7,8,9,11,12,13,14,15,16,17-decahydro-6H-cyclopenta[a]phenanthren-15-yl}-N-(5-methylthiazol-2-yl)propanamide], the inhibition at 1 µM in series [3] was 41%; in series [4], 95%. Moreover, in series [1], the “In vitro metabolic stability, % remaining after 60 min” value was determined as 100%.
Turning to `CO/N=C1\C[C@@H](CCC(=O)Nc2ncc(C)s2)C2C3CCc4cc(OP(=O)([O-])[O-])c(C(C)(C)C)cc4C3CC[C@]12C.[Na+].[Na+]` (stereo partly drawn) [Compound 1a], in series [2] (Table 5, disodium salt), the “aqueous solubility (in words)” value was “improved aqueous solubility; also recorded: significant aqueous solubility”. Further, the “Aqueous solubility, buffer at pH 7.4” value in series [2] (buffer at pH 7.4, rt) is “over 32 mg/ml”.
For the compound `CO/N=C1\C[C@@H](CCC(=O)Nc2ncc(C)s2)C2C3CCc4cc(OCOP(=O)(O)O)c(C(C)(C)C)cc4C3CC[C@]12C` (stereo partly drawn) [Compound 15, (((13S,15R)-2-(tert-butyl)-17[(E)-methoxyimino]-13-methyl-15-(3-((5-methylthiazol-2-yl)amino)-3-oxopropyl)-7,8,9,11,12,13,14,15,16,17-decahydro-6H-cyclopenta[a]phenanthren-3-yl)oxy)methyl dihydrogen phosphate], the “aqueous solubility (in words)” value in series [2] is listed as “significant aqueous solubility”.
Regarding `CO/N=C1\C[C@@H](CCC(=O)Nc2ncc(C)s2)C2C3CCc4cc(OCOP(=O)(O)O)c(C(C)(C)C)cc4C3CC[C@]12C.[Na].[Na]` (stereo partly drawn) [Compound 15a, (((13S,15R)-2-(tert-butyl)-17[(E)-methoxyimino]-13-methyl-15-(3-((5-methylthiazol-2-yl)amino)-3-oxopropyl)-7,8,9,11,12,13,14,15,16,17-decahydro-6H-cyclopenta[a]phenanthren-3-yl)oxy)methyl dihydrogen phosphate disodium salt], in series [2] (Table 5), the “aqueous solubility (in words)” value is “improved aqueous solubility”. The solubility in series [2] (buffer solution, aqueous buffer, buffer at pH 7.4, rt, read-out: Aqueous solubility, buffer at pH 7.4) was above 30000 µg/mL.
Regarding `CO/N=C1\C[C@@H](CCC(=O)Nc2ncc(C)s2)C2C3CCc4cc(OC(=O)CN(C)C)c(C(C)(C)C)cc4C3CC[C@]12C.Cl` (stereo partly drawn) [Compound 4a, (13S,15R)-2-(tert-butyl)-17[(E)-methoxyimino]-13-methyl-15-(3-((5-methylthiazol-2-yl)amino)-3-oxopropyl)-7,8,9,11,12,13,14,15,16,17-decahydro-6H-cyclopenta[a]phenanthren-3-yl dimethylglycinate hydrochloride], the “aqueous solubility (in words)” value in series [2] (Table 5) is recorded as “improved aqueous solubility”. Besides, the solubility in series [2] (aqueous buffer, buffer at pH 7.4, rt, read-out: Aqueous solubility, buffer at pH 7.4) came out at 7.99 µg/mL.

The inhibition is the drop in the measured response relative to a control, in per cent. The solubility is the dissolved amount per volume that the medium holds.
